# Publication PMC3516570, “The GM2 Glycan Serves as a Functional Coreceptor for Serotype 1 Reovirus” (PLoS Pathogens, 2012)
# B1: reovirus type 1 Lang (T1L) σ1, construct σ1_(long) (amino acids 261–470), GCN4 domain and His6-tag removed (domain or fragment)
# chain: LESAKIDSVLPPLTVREASGVRTLSFGYDTSDFTIINSVLSLRSRLTLPTYRYPLELDTANNRVQVADRFGMRTGTWTGQLQYQHPQLSWRANVTLNLMKVDDWLVLSFSQMTTNSIMADGKFVINFVSGLSSGWQTGDTEPSSTIDPLSTTFAAVQFLNNGQRIDAFRIMGVSEWTDGELEIKNYGGTYTGHTQVYWAPWTIMYPCNVR
# notes: Made as His6-GCN4(trimeric)-σ1(261–470) in pQE-80L; Crystals were soaked with GM2 or GM3 glycan; also called cleaved σ1_(long); σ1 attachment protein; not shown: His6, N-terminal, cleaved; GCN4 trimeric leucine zipper, N-terminal, cleaved
# Legend:
# T1L σ1long = biological target: T1, T1L σ1long (Mammalian orthoreovirus 1 Lang, UniProt P04506); assay: X-ray crystal structure ([…] Å); also STD NMR; format: binding; conditions: crystal soak with 20 mM glycan; same site as GM2 glycan; STD NMR pH 7.4, 283 K
# T1 construct: gene S1; residues 261-470, three C-terminal beta-spirals plus head; E. coli; trimeric GCN4 zipper and His6-tag removed by trypsin (kept for glycan array); trimer
# [1] = biological target: the molecule itself; assay: crystal structure; crystals of cleaved σ1_(long) grown in 0.1 M Na cacodylate (pH 6.0–6.6), 1.2–1.5 M (NH4)2SO4 at 4°C, soaked with 20 mM GM2 or GM3 oligosaccharide; space group P3_(2)21; 3.6 Å (GM2) and 3.5 Å (GM3)
Molecule,X-ray crystal structure (3.5 Å); also STD NMR (T1L σ1long),stoichiometry N [1]
CC(=O)N[C@H]1[C@H]([C@H](O)[C@H](O)CO)O[C@@](O[C@H]2[C@@H](O)[C@@H](CO)O[C@@H](O[C@H]3[C@H](O)[C@@H](O)C(O)O[C@@H]3CO)[C@@H]2O)(C(=O)O)C[C@@H]1O (some centres unmarked) [GM3 glycan],4GU4 (T1L σ1-GM3 glycan complex),–
B1,–,3
